From US20250064762A1, “A SUBSTITUTED AROMATIC DICARBONIC ACID AMIDE AS AN INHIBITOR OF THE FERROPTOSIS SUPPRESSOR PROTEIN-1 (FSP1)” (JULIUS-MAXIMILIANS-UNIVERSITÄT WÜRZBURG, priority 2021, published 2025)
“Also recorded” adds a separate entry of the source.

What was measured:
[1] = test system: mouse embryonic fibroblasts (MEFs); test: FIN-induced ferroptosis in Pgp-wildtype or heterozygous Pgp-inactivated MEFs; format: cell-based
Experimental: (§1) Cells were seeded onto 96-well plates (5,000 cells per well), and treated with serial dilutions of ferroptosis-inducing compounds (erastin, BSO, RSL3, FIN56) or cytotoxic drugs (staurosporine, nocodazole, tunicamycin, paclitaxel, etoposide, menadione, rotenone, FCCP, carboplatin) in the absence or presence of CPBA or iFSP1 (100 μM or 10 μM, respectively; unless stated otherwise) or the DMSO solvent control. Ferroptotic cell death was evaluated by incubating in the absence or presence of liproxstatin-1 (100 nM), ferrostatin-1 (200 nM), or deferoxamine (100 μM). Cell viability was assessed after 16 h using AquaBluer as an indicator of viable cells according to the manufacturer's recommendations (MultiTarget Pharmaceuticals, LLC). Fluorescence (excitation, 540 nm; emission, 590 nm) was analyzed on a Clariostar microplater reader.
The above experiment was repeated in mouse embryonic fibroblasts (MEFs) generated from Pgp-wildtype (Pgp^fl/fl) or heterozygous Pgp-inactivated mouse embryos (Pgp^fl/D34N).

[2] = test system: HT1080 cells, mouse embryonic fibroblasts (MEFs), Du145 and PC3; test: Cell viability (AquaBluer): ferroptosis inducers (FINs) with or without CPBA; format: cell-based, human; conditions: 16 h
Experimental: as §1
HT1080 cells, mouse embryonic fibroblasts (MEFs, non-transformed, non-immortalized) and human prostate carcinoma cell lines Du145 and PC3 were incubated with serial dilutions of ferroptosis inducers (FINs) erastin, BSO, RSL3 or FIN56 in the absence or presence of CPBA and/or the ferroptosis inhibitor liproxstatin-1 (HT1080, Du145, PC3: 200 μM CPBA, MEF: 100 μM CPBA; lip-1:100 nM), and cell viability was analyzed after 16 h using Aquabluer. […]
AUC values (AUC FIN+CPBA/AUC FIN+ctrl) were calculated as described above.

HT1080 cells = test: Mass spectrometry lipidomics of CPBA-treated cells; format: cell-based, human; conditions: 200 μM CPBA, 16 h
Experimental: Mass spectrometry-based lipid analysis was performed by Lipotype GmbH (Dresden, Germany) as described (Sampaio et al. 2011). Lipids were extracted using a two-step chloroform/methanol procedure (Ejsing et al. 2009). […]
Samples were analyzed by direct infusion on a QExactive mass spectrometer (Thermo Fisher Scientific) equipped with a TriVersa NanoMate ion source (Advion Biosciences). Samples were analyzed in both positive and negative ion modes with a resolution of Rm/z=200=280000 for MS and Rm/z=200=17500 for MSMS experiments, in a single acquisition. […]
Data were analyzed with in-house developed lipid identification software based on LipidXplorer (Herzog et al. 2011; Herzog et al. 2012). […]
Next, we analyzed the lipidomic signature of HT1080 cells treated with CPBA (200 μM, 16 h) using the lipidomics methods described above. […]

## O=C(Nc1ccccc1C(=O)O)c1ccc(Oc2ccc(C(=O)Nc3ccccc3C(=O)O)cc2)cc1 [CPBA, 2-[[4-[4-[(2-carboxyphenyl)carbamoyl]phenoxy]benzoyl]amino]-benzoic acid]
[1]
  sensitization to FIN-induced ferroptosis in Pgp^fl/fl and Pgp^fl/D34N cells: able to sensitize both Pgp^fl/fl and Pgp^fl/D34N cells to FIN-induced ferroptosis
[2]; FINs erastin, BSO, RSL3 or FIN56, 200 μM CPBA (MEF: 100 μM)
  effect on FIN-induced ferroptosis / cell viability: increases the negative effect of FINs on cell viability; also recorded: strongly increases FIN-induced ferroptosis in all cell lines
[2]; HT1080 and PC3 cells, serial dilutions of FINs±CPBA
  concentration dependence of ferroptosis-sensitization: ferroptosis-sensitization by CPBA is concentration-dependent
HT1080 cells
  PUFA ether lipids (PE-O, PC-O): downregulate polyunsaturated fatty acid (PUFA) ether lipids
  PUFA-triacylglycerides: upregulate PUFA-triacylglycerides (PUFA-TAGS)
